Blank lines part the entries; values can stand above or below the compound they belong to.
Columns and labels:
Format in all cases: cell-based
[1] = target: T1, von Hippel-Lindau disease tumor suppressor/Receptor-type tyrosine-protein kinase FLT3 (Homo sapiens, UniProt P36888+P40337); assay: PROTAC activity at VHL/FLT3 in human MV4-11 cells assessed as FLT3 degradation by measuring maximal efficacy by Western blot analysis relative to control
[2] = target: T1, von Hippel-Lindau disease tumor suppressor/Receptor-type tyrosine-protein kinase FLT3; assay: PROTAC activity at VHL/FLT3 in human MV4-11 cells assessed as induction of FLT3 degradation by Western blot analysis
Target sequence in this assay (P36888 whole entry): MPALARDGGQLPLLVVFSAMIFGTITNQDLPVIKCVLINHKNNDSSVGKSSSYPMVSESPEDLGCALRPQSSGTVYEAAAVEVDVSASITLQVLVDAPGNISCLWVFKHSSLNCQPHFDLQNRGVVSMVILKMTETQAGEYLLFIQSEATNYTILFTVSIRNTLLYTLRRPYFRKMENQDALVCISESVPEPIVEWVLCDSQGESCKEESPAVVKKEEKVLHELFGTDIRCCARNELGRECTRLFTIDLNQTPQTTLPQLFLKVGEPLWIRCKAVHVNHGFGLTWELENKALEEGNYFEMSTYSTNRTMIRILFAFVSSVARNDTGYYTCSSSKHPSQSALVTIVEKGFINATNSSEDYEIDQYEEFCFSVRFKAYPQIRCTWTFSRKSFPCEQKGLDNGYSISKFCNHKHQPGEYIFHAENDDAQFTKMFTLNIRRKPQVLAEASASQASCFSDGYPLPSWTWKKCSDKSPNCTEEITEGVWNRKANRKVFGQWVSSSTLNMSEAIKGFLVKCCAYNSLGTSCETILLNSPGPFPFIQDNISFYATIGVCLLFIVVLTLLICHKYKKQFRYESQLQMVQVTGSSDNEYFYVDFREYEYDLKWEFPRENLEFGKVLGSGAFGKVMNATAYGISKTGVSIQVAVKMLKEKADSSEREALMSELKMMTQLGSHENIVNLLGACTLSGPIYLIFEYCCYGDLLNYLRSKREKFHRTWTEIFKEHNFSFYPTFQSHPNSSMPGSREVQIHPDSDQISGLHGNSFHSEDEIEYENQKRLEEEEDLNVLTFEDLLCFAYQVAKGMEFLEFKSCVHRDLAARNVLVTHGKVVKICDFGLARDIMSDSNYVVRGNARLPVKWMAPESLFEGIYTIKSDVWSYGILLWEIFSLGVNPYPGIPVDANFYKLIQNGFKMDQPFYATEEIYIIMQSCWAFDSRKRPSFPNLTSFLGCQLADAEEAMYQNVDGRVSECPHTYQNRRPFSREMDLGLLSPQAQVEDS
Target sequence in this assay (P40337 whole entry): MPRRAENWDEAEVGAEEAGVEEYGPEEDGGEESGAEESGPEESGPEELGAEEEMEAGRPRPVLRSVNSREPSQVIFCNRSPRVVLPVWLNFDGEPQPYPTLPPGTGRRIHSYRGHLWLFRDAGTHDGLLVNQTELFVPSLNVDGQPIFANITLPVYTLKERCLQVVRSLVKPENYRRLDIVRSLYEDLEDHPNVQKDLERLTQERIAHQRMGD

[3] = target: von Hippel-Lindau disease tumor suppressor/Leucine-rich repeat serine/threonine-protein kinase 2 (Homo sapiens, UniProt P40337+Q5S007); assay: PROTAC activity at VHL/LRRK2 in human MV4-11 cells assessed as induction of LRRK2 degradation by Western blot analysis
Chain of von Hippel-Lindau disease tumor suppressor/Leucine-rich repeat serine/threonine-protein kinase 2 (Q5S007 whole entry): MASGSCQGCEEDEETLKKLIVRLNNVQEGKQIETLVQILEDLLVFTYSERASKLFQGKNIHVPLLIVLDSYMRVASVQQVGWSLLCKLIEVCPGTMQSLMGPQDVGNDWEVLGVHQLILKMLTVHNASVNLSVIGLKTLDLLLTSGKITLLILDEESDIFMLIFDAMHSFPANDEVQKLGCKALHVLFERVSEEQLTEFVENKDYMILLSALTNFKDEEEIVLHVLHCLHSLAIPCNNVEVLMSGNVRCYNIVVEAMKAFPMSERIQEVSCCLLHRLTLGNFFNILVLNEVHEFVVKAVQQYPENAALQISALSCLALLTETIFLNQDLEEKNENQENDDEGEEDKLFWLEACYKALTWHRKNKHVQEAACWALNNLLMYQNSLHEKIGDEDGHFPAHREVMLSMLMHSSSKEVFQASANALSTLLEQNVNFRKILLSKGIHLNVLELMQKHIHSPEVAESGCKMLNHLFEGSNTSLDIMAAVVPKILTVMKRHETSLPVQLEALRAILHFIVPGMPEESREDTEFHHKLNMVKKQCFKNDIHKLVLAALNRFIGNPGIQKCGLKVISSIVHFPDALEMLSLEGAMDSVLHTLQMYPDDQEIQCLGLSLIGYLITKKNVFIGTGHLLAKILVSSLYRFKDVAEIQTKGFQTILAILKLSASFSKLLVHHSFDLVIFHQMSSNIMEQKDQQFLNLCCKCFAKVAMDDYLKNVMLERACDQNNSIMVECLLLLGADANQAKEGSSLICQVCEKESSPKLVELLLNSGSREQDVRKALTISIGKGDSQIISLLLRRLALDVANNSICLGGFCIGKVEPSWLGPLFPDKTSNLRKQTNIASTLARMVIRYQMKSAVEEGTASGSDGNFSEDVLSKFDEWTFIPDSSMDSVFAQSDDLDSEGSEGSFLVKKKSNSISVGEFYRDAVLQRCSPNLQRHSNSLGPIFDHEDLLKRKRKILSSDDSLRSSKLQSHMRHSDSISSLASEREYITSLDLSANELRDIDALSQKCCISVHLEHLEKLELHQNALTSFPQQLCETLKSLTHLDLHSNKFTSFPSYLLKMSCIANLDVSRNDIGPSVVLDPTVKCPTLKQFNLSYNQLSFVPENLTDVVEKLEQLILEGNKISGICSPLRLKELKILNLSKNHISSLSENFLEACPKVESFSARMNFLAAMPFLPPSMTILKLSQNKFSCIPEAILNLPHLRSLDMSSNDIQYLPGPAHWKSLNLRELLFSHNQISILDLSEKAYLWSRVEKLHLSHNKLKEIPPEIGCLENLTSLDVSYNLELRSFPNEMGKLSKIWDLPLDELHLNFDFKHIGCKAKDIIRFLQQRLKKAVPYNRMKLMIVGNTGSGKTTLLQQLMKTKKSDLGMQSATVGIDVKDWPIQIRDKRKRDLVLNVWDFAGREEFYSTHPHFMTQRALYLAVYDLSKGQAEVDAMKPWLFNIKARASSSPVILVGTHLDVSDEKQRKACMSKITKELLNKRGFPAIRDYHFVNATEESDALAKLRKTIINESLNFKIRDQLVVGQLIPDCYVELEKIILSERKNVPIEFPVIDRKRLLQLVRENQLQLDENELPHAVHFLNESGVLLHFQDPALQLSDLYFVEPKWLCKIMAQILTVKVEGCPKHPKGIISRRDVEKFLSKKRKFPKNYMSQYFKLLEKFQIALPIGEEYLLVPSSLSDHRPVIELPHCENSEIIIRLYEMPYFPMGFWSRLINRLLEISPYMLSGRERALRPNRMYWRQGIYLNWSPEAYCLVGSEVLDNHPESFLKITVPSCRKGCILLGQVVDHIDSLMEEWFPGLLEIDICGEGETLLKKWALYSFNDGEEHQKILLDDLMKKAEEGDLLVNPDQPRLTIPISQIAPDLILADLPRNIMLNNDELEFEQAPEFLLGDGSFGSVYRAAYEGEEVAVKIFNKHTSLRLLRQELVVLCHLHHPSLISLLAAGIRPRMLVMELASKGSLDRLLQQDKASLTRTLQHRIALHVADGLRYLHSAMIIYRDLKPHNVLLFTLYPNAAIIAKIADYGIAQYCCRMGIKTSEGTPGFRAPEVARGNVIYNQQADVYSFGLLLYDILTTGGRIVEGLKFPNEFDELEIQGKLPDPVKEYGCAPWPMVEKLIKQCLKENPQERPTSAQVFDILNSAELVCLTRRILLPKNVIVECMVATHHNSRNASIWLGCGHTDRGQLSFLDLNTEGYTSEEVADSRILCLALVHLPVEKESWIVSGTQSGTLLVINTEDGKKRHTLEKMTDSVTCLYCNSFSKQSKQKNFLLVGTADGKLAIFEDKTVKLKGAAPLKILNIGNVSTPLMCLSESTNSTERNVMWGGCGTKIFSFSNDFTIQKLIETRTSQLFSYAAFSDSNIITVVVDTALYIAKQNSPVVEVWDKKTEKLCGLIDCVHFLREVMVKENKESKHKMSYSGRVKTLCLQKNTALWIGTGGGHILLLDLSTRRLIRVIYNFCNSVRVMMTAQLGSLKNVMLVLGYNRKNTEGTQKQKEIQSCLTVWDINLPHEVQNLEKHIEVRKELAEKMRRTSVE
Chain of von Hippel-Lindau disease tumor suppressor/Leucine-rich repeat serine/threonine-protein kinase 2 (P40337 whole entry): as the sequence (P40337 whole entry) above

[4] = target: von Hippel-Lindau disease tumor suppressor/Leucine-rich repeat serine/threonine-protein kinase 2 (Homo sapiens) (UniProt Q5S007+P40337); assay: PROTAC activity at VHL/LRRK2 in human MV4-11 cells assessed as LRRK2 degradation by measuring maximal efficacy by Western blot analysis relative to control
Chain of von Hippel-Lindau disease tumor suppressor/Leucine-rich repeat serine/threonine-protein kinase 2 (Homo sapiens) (P40337 whole entry, looked up): as the sequence (P40337 whole entry) above
Chain of von Hippel-Lindau disease tumor suppressor/Leucine-rich repeat serine/threonine-protein kinase 2 (Homo sapiens) (Q5S007 whole entry, looked up): as the sequence (Q5S007 whole entry) above

[5] = target: von Hippel-Lindau disease tumor suppressor/Cyclin-dependent kinase 6 (Homo sapiens, UniProt P40337+Q00534); assay: PROTAC activity at VHL/CDK6 in human MV4-11 cells assessed as induction of CDK6 degradation by Western blot analysis
Chain of von Hippel-Lindau disease tumor suppressor/Cyclin-dependent kinase 6 (Q00534 whole entry): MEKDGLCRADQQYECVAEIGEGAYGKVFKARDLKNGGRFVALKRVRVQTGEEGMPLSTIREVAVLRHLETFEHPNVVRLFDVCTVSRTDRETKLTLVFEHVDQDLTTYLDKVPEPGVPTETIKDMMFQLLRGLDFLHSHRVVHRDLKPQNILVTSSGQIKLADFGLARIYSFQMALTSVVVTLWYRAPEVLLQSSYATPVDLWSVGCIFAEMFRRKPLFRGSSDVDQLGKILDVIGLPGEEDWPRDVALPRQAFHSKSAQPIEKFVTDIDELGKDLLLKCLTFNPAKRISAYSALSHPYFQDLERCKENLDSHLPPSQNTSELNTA
Chain of von Hippel-Lindau disease tumor suppressor/Cyclin-dependent kinase 6 (P40337 whole entry): as the sequence (P40337 whole entry) above

[6] = target: von Hippel-Lindau disease tumor suppressor/Cyclin-dependent kinase 6 (Homo sapiens) (UniProt Q00534+P40337); assay: PROTAC activity at VHL/CDK6 in human MV4-11 cells assessed as CDK6 degradation by measuring maximal efficacy by Western blot analysis
Chain of von Hippel-Lindau disease tumor suppressor/Cyclin-dependent kinase 6 (Homo sapiens) (P40337 whole entry, looked up): as the sequence (P40337 whole entry) above
Chain of von Hippel-Lindau disease tumor suppressor/Cyclin-dependent kinase 6 (Homo sapiens) (Q00534 whole entry, looked up): as the sequence (Q00534 whole entry) above

[7] = target: von Hippel-Lindau disease tumor suppressor/Bromodomain-containing protein 4 (Homo sapiens, UniProt O60885+P40337); assay: PROTAC activity in VHL/BRD4 in human MV4-11 cells assessed as induction of BRD4 degradation by Western blot analysis
Chain of von Hippel-Lindau disease tumor suppressor/Bromodomain-containing protein 4 (P40337 whole entry, looked up, other chains not shown): as the sequence (P40337 whole entry) above

Emax [1]: 90%
EC50 [2]: < 5 nM
Compound: Cc1ncsc1-c1ccc(CNC(=O)[C@@H]2C[C@@H](O)CN2C(=O)[C@@H](NC(=O)CCOCCOCCOc2ccc3c(c2)sc2nc(-c4ccc(NC(=O)Nc5cc(C(C)(C)C)on5)cc4)cn23)C(C)(C)C)cc1

EC50 [3]: 15 nM
Emax [4]: > 82%
Compound: CNc1nc(Nc2ccc(C(=O)N3CCN(C[C@H]4CC[C@H](CSC(C)(C)[C@H](NC(=O)C5(F)CC5)C(=O)N5C[C@H](O)C[C@H]5C(=O)NCc5ccc(-c6scnc6C)cc5)CC4)CC3)cc2OC)ncc1Cl

EC50 [5]: 5.1 nM
Emax [6]: 95%
Compound: CC(=O)c1c(C)c2cnc(Nc3ccc(N4CCN(CCOCCOCCOc5cc(-c6scnc6C)ccc5CNC(=O)[C@@H]5C[C@@H](O)CN5C(=O)[C@@H](NC(=O)C5(F)CC5)C(C)(C)C)CC4)cn3)nc2n(C2CCCC2)c1=O

EC50 [7]: 16 nM
Compound: Cc1cc([C@H](C(=O)N2C[C@H](O)C[C@H]2C(=O)N[C@@H](C)c2ccc(-c3scnc3C#CCOCCOCCOCCOCCNC(=O)C[C@@H]3N=C(c4ccc(Cl)cc4)c4c(sc(C)c4C)-n4c(C)nnc43)cc2)C(C)C)on1

Reference: ChEMBL document CHEMBL5380878, “A beginner's guide to current synthetic linker strategies towards VHL-recruiting PROTACs” (Bioorg Med Chem, 2023)
